Where a name gives a salt, the structure may show the parent alone.
Legend:
Format in all cases: biochemical, Pseudomonas sp. No. 15-1
[1] = test system: N-acetylhexosamine oxidase; assay: Activity inhibition by metalic ion or inhibitor; details: for inhibition of enzyme activity (in words): 1.8mM metalic ion
[2] = test system: N-acetylhexosamine oxidase; assay: Action and specificity for substrate; details: in the presence of oxygen
Description: As shown in the following reaction formula, the present enzyme oxidizes N-acetylhexosamine in the presence of oxygen to form N-acetylhexosaminic acid and hydrogen peroxide.

[3] = test system: N-acetylhexosamine oxidase; assay: Activity stabilization by bovine serum albumin in heat treatment; details: 1 mg/ml in potassium phosphate buffer solution of pH 6.8; 10 minutes heat treatment
Description: Further, in 10 minutes heat treatment at 45° C., the present enzyme is stable between pH 3 and pH 9 and loses its activity rapidly at a more acidic region and slowly at a more alkaline region. In this experiment, the hydrogen peroxide method was adopted, and the residual activity of the present enzyme subjected to 10 minutes heat treatment in a potassium phosphate buffer solution of pH 6.8 at each temperature was compared with the residual activity of the same enzyme subjected to the same treatment in a potassium phosphate buffer solution of pH 6.8 containing 1 mg/ml of bovine serum albumin.

[4] = 1.8mM metalic ion or inhibitor, tris-hydrochloric acid buffer solution of pH 7.5
[5] = tris-hydrochloric acid buffer solution of pH 7.5

Compound | Residual activity (%) [1, 4] [%] | inhibition of enzyme activity (in words) [1, 5] | also measured
O=S(=O)([O-])[O-].[Mg+2] [MgSO4] | 86 |  | 
O=S(=O)([O-])[O-].[Cu+2] [CuSO4] | 74 |  | 
O=S(=O)([O-])[O-].[Co+2] [CoSO4] | 75 |  | 
[Ca+2].[Cl-].[Cl-] [CaCl2] | 91 |  | 
O=C(O)c1cc[c]([Hg][Cl])cc1 [PCMB, pChloromercurybenzoate] | 67 |  | 
O=C(O)CN(CCN(CC(=O)O)CC(=O)O)CC(=O)O [EDTA, Etheylenediaminetetracetic acid sodium salt] |  |  | Residual activity (%) ([1]; pH 7.5): 87%
NC(=O)CI [ICH2 CONH2] | 90 |  | 
CC(=O)N[C@H]1[C@H]([C@H](O)[C@H](O)CO)OC(O)(C(=O)O)C[C@@H]1O (stereo partly shown) [N-acetylneuraminic acid] |  |  | action of the enzyme on the substrate [2]: hardly acts or does not all act
c1cnc2c(c1)ccc1cccnc12 [O'--Phenanthroline] | 81 |  | 
O=S(=O)([O-])[O-].[Fe+2] [FeSO4] | 15 | inhibited greatly | 
O=[N+]([O-])[O-].[Ag+] [AgNO3] |  |  | Residual activity (%) ([1]; 1.8mM, Phosphate buffer solution): 5%
CC(=O)[O-].CC(=O)[O-].[Pb+2] [Pb(CH3 COO)2] | 42 | considerably | 
CCCCCCCCCCCCOS(=O)(=O)[O-].[Na+] [SDS, Sodium dodecylsulfate] | 87 |  | 
bovine serum albumin |  |  | effect of addition on enzyme activity [3]: stabilized and moreover slightly enhanced
HgCl2 | 17 | inhibited greatly | 
O=S(=O)([O-])[O-].[Ni+2] [NiSO4] | 64 | considerably | 
O=S(=O)([O-])[O-].[Cd+2] [CdSO4] | 52 | considerably | 
O=S(=O)([O-])[O-].[Zn+2] [ZnSO4] | 2 | inhibited greatly | 
O=S(=O)([O-])[O-].[Mn+2] [MnSO4] | 84 |  | 
